# Measurements reported in patent US20090170899A1, “Stimulators of 5-HT4 receptors and uses thereof” (priority 2004, published 2009).
# How the values were obtained:
# [1] = system: BrdU-positive cells in the sub-granular zone (SGZ) of the hippocampus; experiment: Hippocampal neurogenesis (BrdU-positive cells) after 3-day treatment; format: in vivo, rat; conditions: RS 67333 1.5 mg/kg/day, 3 days
# Protocol: A and B: Photomicrographs (magnification: 10× and 100× for the small rectangles) representative of the control and RS 67333 group, respectively. Clusters of positive cells were found in the presence of RS 67333 (small rectangles). RS 67333 was administered through the use of osmotic minipumps, inserted subcutaneously in the region of the back. Rats received intraperitoneal injections of BrdU at the dose of 50 mg/kg twice daily (8 h interval), starting from the day of minipump insertion until day 2 post-surgery.
# Drugs and Chemicals. The following compounds were used: GR 125487 sulphamate, prucalopride monohydrochloride, citalopram hydrobromide (gifts from Glaxo, Janssen and Lundbeck laboratories, respectively), RS 67333 hydrochloride (Tocris Cookson Inc., Ellisville, Mo., USA), WAY 100635 hydrochloride (Research Biochemicals, Natick, Mass., USA), pCPA methyl ester hydrochloride, BrdU (Sigma-Aldrich Canada, Oakville, Ontario, Canada). All compounds were diluted in distilled water. All drug dosages refer to the free base. For chronic treatments, prucalopride (2.5 mg/kg/day), RS 67333 (1.5 mg/kg/day) or the vehicle were delivered through osmotic minipumps (Alza, Palo Alto, Calif., USA), inserted subcutaneously in the region of the back under short-duration (≦5 min) halothane anesthesia. […]
# [2] = system: DRN 5-HT neurons; experiment: Reversal by acute prucalopride of the inhibition of DRN 5-HT neuron firing rate induced by i.v. SSRIs; format: in vivo, rat
# From the text: FIGS. 6A and 6B illustrate the effect of prucalopride on the inhibition of 5-HT neuronal firing rate induced by SSRIs fluxoamine and citalopram.
# In FIGS. 6A and 6B, the firing activity of the 5-HT neuron is suppressed following the acute intravenous administration of the antidepressant SSRIs fluvoxamine and citalopram. This suppression of the firing activity is due to the activation of the 5-HT1A autoreceptors, subsequent to the increase of the concentration of endogenous 5-HT, following the blockade of the 5-HT reuptake sites.
# [3] = Horizontal locomotion in activity chambers; conditions: i.p. 30 min before testing; prucalopride 2.5 mg/kg, RS 67333 1.5 mg/kg
# Protocol: All data are expressed as mean±S.E.M. of eight animals per group, and are from an observation of 4 min duration. Rats experienced a pre-test session (15 min) 24 h before the test session. The 5-HT4 agonists were administered 30 min before the test session. […] Data are expressed as mean±S.E.M. of eight animals per group, and are from an observation of 10 min duration. The 5-HT4 agonists were administered 30 min before testing. *p<0.05, **p<0.01 vs the vehicle, Dunnett's test;
# Thirty min after drug administration, rats were placed in activity cages in whom photoelectric cells were inserted allowing recordings of locomotor activity, i.e. quantification of the total number of activity counts (photocell beam breaks) during 10 min. session.
Compound,size of clusters of BrdU-positive cells [1] [clones],density of BrdU-positive cells in the SGZ ([1]; control 44.9±17.2) [per mm^2],share of 5-HT neurons in which the suppression is reversed ([2]; acute prucalopride),effect of prucalopride on SSRI-induced suppression of 5-HT neuron firing ([2]; acute prucalopride after fluvoxamine or citalopram i.v.),"effect on rat locomotion (activity counts, 10 min) [3] [%]"
"CCCCN1CCC(CCC(=O)c2cc(Cl)c(N)cc2OC)CC1 [RS 67333, 1-(4-amino-5-chloro-2-methoxyphenyl)-3-(1-n-burtl-4-piperidinyl)-1-propanone]",6 to 10,200.2±44.9,–,–,–
COCCCN1CCC(NC(=O)c2cc(Cl)c(N)c3c2OCC3)CC1 [prucalopride],–,–,about one-half,partially reverse,78
